Results: patent US20260209220A1, “SUBSTITUTED TETRAHYDROPYRROLO-PYRIDINONE COMPOUNDS AND THEIR USE IN TREATING MEDICAL CONDITIONS” (Karuna Therapeutics, Inc., priority 2022, published 2026)

What was measured:
rM4 receptors = target: T1, rM4 receptors (Rattus norvegicus, UniProt P08485); test: Rat M4 PAM PERK assay (CHO cells, TR-FRET, with EC20 acetylcholine); format: cell-based
T1 construct: expressed in transfected cells; host or cells: CHO cells
T1 sequence (P08485 1-478): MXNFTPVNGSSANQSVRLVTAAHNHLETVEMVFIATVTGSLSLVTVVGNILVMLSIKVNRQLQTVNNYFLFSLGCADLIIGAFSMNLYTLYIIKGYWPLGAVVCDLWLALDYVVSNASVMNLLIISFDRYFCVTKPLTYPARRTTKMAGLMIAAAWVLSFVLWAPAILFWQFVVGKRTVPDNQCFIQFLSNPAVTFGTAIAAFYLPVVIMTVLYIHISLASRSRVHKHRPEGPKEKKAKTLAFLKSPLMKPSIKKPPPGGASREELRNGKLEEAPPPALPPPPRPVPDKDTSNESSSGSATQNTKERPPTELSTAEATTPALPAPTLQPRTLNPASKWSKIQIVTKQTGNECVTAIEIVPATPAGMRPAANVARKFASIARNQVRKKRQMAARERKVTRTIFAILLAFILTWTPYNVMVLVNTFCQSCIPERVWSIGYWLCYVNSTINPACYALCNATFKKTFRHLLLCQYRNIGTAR
How it was run: (§1)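 CHO cells expressing human or rat M4, serum-starved 4 h, then given compound (10-point, 10 μM top, ½-log) with EC20 acetylcholine (10 nM final) for 5 min at 37 °C. Lysates assayed for phospho-ERK by TR-FRET after 2 h detection at RT.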

human M4 receptor = target: T2, human M4 receptor (Homo sapiens, UniProt P08173); test: M4 GTPγS PAM assay (CHO-K1 membranes, 35S-GTP binding, with EC20 acetylcholine); format: biochemical; details: with EC20 acetylcholine (40 nM)
T2 construct: expressed in transfected cells; host or cells: CHO-K1 cells (membranes)
T2 sequence (P08173 1-479): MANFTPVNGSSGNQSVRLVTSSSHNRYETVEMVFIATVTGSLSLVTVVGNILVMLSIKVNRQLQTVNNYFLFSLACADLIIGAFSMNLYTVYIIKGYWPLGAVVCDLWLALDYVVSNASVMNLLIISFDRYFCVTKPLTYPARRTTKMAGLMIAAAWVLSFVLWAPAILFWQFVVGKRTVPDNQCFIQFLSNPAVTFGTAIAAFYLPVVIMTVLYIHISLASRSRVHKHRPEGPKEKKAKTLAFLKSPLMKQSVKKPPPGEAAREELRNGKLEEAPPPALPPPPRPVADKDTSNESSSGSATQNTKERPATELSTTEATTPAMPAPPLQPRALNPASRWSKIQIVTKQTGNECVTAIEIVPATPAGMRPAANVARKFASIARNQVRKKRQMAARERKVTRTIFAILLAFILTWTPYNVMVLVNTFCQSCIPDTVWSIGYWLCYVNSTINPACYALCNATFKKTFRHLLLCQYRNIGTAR
How it was run: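 Membranes from CHO-K1 cells stably expressing human M4 ([…]) in 20 mM HEPES, 10 mM MgCl2, 100 mM NaCl, with 0.1 μM GDP final, were preincubated with compound 10-15 min at RT. Acetylcholine at EC20 (40 nM final) was added for 10-15 min, then 0.4 nM 35S-GTP solution for 1 h at RT. Filter-bound radioactivity was counted.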

hM4 receptors = target: T3, hM4 receptors (Homo sapiens, UniProt P08173); test: Human M4 PAM PERK assay (CHO cells, TR-FRET, with EC20 acetylcholine); format: cell-based
T3 construct: expressed in transfected cells; host or cells: CHO cells
T3 sequence (P08173 1-479): T2 sequence (P08173 1-479)
How it was run: as §1

SMILES | EC50 (rM4 receptors) | EC50 (human M4 receptor) | EC50 (hM4 receptors)
Cc1cc(=O)n(C)c2c1CN(C(=O)CC1CN(c3cnn(C(F)(F)F)c3)C1)C2 [Compound I-34] | > 1000 nM | > 1000 nM | > 1000 nM
Cc1cc(=O)n(C)c2c1CN(C(=O)CC1CN(c3cccc(C#N)c3)C1)C2 [Compound I-25] | 200 to 1000 nM | 200 to 1000 nM | 50 to 200 nM
Cc1cc(=O)n(C)c2c1CN(C(=O)CC1CN(c3ccc(C(F)(F)F)cn3)C1)C2 [Compound I-8] | > 1000 nM | > 1000 nM | 200 to 1000 nM
Cc1cc(=O)n(C)c2c1CN(C(=O)CC1CN(c3ccnc(C4CC4)n3)C1)C2 [Compound I-24] | 200 to 1000 nM | 50 to 200 nM | 50 to 200 nM
